This is an account of results in patent US9085570B2, “Substituted benzamides and their uses” (The Board of Trustees of the Leland Stanford Junior …, priority 2010, dated 2015).

The test system of series [1] is RCC4 with VHL-reintroduced (RCC4/VHL). Put plainly: XTT cell viability assay in RCC4/VHL cells, selectivity ratio versus RCC4. Format: cell-based. The settings on record: Ratio = IC50RCC4/VHL/IC50RCC4. As to the method: (§1) Cell Culture. RCC4 parental and RCC4 with VHL-reintroduced (RCC4/VHL), SN12C and SN12C-CSCG-VHL shRNA were maintained in DMEM supplemented with 10% FCS.
(§2) Cell Viability Assays. For 2,3-bis[2-methoxy-4-nitro-5-sulfophenyl]-2H-tetrazolium-5-carboxanilide (XTT) assays, five thousand cells were plated in 96-well plates. The next day, vehicle (DMSO) or drug was added by serial dilution. Four days later, media were aspirated, XTT solution (0.3 mg/ml of XTT (Sigma), […] N-methyl dibenxopyrazine methyl sulfate (Simga) in phenol red-free media) was added, and the plates were incubated at 37° C. for 1-2 hours. Metabolism of XTT was quantified by measuring the absorbance at 450 nm IC50s were calculated using linear interpolation. For clonogenic survival assays, three hundred cells were plated per 60 mm tissue culture dish. The cells were allowed to attach overnight and then treated with vehicle or drug for 14 days. Colonies were fixed and stained with crystal violet (0.1% crystal violet in 95% ethanol). All conditions were measured in triplicate and each experiment was done in duplicate or triplicate. To determine necrosis, cells were treated with drug for a given time point. Media and cells were collected, centrifugated, and resuspended in 0.4% trypan blue (Invitrogen). Live and dead cells were counted on a hematocytometer.
(§3) The designation A reflects an IC50 of <1 nM; B reflects an IC50 ranging from 1 to 20 nM; and C is an IC50 of >20 nM. The designation “a” reflects a ratio of RCC4/RCC-VHL+ranging from 1 to ≦10; “b” reflects from 10 to ≦100; “c” reflects a ratio of >100. Compounds I-29 have an IC50 value of ≦10 μM when tested in the above assay.

A further series concerns RCC4. Description: XTT cell viability assay in RCC4 cells (VHL-deficient renal carcinoma). As to conditions: four days drug exposure. The format is cell-based. As to the method:
as §1, §2, §3
Background: Formazan colour is commonly taken as a measure of viable cells.

For `Cc1oc(-c2ccc(C(=O)NCc3cccnc3)cc2)nc1CS(=O)(=O)C1CCNCC1` [Example 39, 4-(5-Methyl-4-((piperidin-4-ylsulfonyl)methyl)oxazol-2-yl)-N-(pyridin-3-ylmethyl)benzamide], the “Ratio (IC50 RCC4 Proficient VHL)/ IC50 RCC4 Deficient VHL)” value in series [1] is “b (from 10 to ≦100)”. For the same compound, the IC50 in the series with RCC4 (Homo sapiens, 96 h) is greater than 20 nM.
`Cc1oc(-c2ccc(C(=O)NCc3cccnc3)cc2)nc1CS(=O)(=O)C1CCN(C)CC1` [Example 40, 4-(5-Methyl-4-((1-methylpiperidin-4-ylsulfonyl)methyl)oxazol-2-yl)-N-(pyridin-3-ylmethyl)benzamide]: the “Ratio (IC50 RCC4 Proficient VHL)/ IC50 RCC4 Deficient VHL)” value in series [1] is “b (from 10 to ≦100)”. Besides, the 50% inhibitory concentration (IC50) in the series with RCC4 (Homo sapiens, 96 h) is less than 1 nM.
Regarding `Cc1oc(-c2ccc(C(=O)NCc3cccnc3)cc2)nc1CS(=O)(=O)[C@H]1CC[C@@H](N)CC1` [Example 41, 4-(4-(((1s,4s)-4-aminocyclohexylsulfonyl)methyl)-5-methyloxazol-2-yl)-N-(pyridin-3-ylmethyl)benzamide], the “Ratio (IC50 RCC4 Proficient VHL)/ IC50 RCC4 Deficient VHL)” value in series [1] is “b (from 10 to ≦100)”. Moreover, the IC50 in the series on RCC4 was greater than 20 nM.
`Cc1oc(-c2ccc(C(=O)NCc3cccnc3)cc2)nc1CS(=O)(=O)[C@H]1CC[C@@H](N2CCCC2)CC1` [Example 42, 4-[5-methyl-4-([[4-(pyrrolidin-1-yl)cyclohexane]sulfonyl]methyl)-1,3-oxazol-2-yl]-N-(pyridin-3-ylmethyl)benzamide]: in series [1], the “Ratio (IC50 RCC4 Proficient VHL)/ IC50 RCC4 Deficient VHL)” value is given as “b (from 10 to ≦100)”. Besides, the IC50 in the series with RCC4 (Homo sapiens, 96 h) is less than 1 nM.
`Cc1oc(-c2ccc(C(=O)NCc3cccnc3)cc2)nc1CS(=O)(=O)[C@H]1CC[C@@H](N2CCCCC2)CC1` [Example 43, 4-[5-Methyl-4-([[4-(piperidin-1-yl)cyclohexane]sulfonyl]methyl)-1,3-oxazol-2-yl]-N-(pyridin-3-ylmethyl)benzamide]: the “Ratio (IC50 RCC4 Proficient VHL)/ IC50 RCC4 Deficient VHL)” value in series [1] is “b (from 10 to ≦100)”. In addition, the IC50 with RCC4 (Homo sapiens, 96 h) was less than 1 nM.
`Cc1oc(-c2ccc(C(=O)NCc3cccnc3)cc2)nc1CS(=O)(=O)[C@H]1CC[C@H](N)CC1` [Example 44, 4-(4-[[(4-Aminocyclohexane)sulfonyl]methyl]-5-methyl-1,3-oxazol-2-yl)-N-(pyridin-3-ylmethyl)benzamide]: the “Ratio (IC50 RCC4 Proficient VHL)/ IC50 RCC4 Deficient VHL)” value in series [1] is “b (from 10 to ≦100)”. Further, the IC50 with RCC4 (Homo sapiens, 96 h) was greater than 20 nM.
`Cc1oc(-c2ccc(C(=O)NCc3cccnc3)cc2)nc1CS(=O)(=O)[C@H]1CC[C@H](N2CCCC2)CC1` [Example 45, 4-[5-Methyl-4-([[4-(pyrrolidin-1-yl)cyclohexane]sulfonyl]methyl)-1,3-oxazol-2-yl]-N-(pyridin-3-ylmethyl)benzamide]: the “Ratio (IC50 RCC4 Proficient VHL)/ IC50 RCC4 Deficient VHL)” value in series [1] is recorded as “b (from 10 to ≦100)”. The IC50 with RCC4 (Homo sapiens, 96 h) is 1 to 20 nM.
The like results for `Cc1oc(-c2ccc(C(=O)NCc3cccnc3)cc2)nc1CS(=O)(=O)[C@H]1CC[C@H](N2CCCCC2)CC1` [Example 46, 4-[5-Methyl-4-([[4-(piperidin-1-yl)cyclohexane]sulfonyl]methyl)-1,3-oxazol-2-yl]-N-(pyridin-3-ylmethyl)benzamide] were, in that order, “b (from 10 to ≦100)” and less than 1 nM.
The like results for `Cc1oc(-c2ccc(C(=O)NCc3cccnc3)cc2)nc1CS(=O)(=O)[C@H]1CC[C@H](N)C1` [Example 47, 4-[4-([[(1S,3S)-3-Aminocyclopentane]sulfonyl]methyl)-5-methyl-1,3-oxazol-2-yl]-N-(pyridin-3-ylmethyl)benzamide] were, in that order, “b (from 10 to ≦100)” and greater than 20 nM.
On to `Cc1oc(-c2ccc(C(=O)NCc3cccnc3)cc2)nc1CS(=O)(=O)[C@H]1CC[C@H](N2CCCC2)C1` [Example 48, 4-[5-Methyl-4-([[(1S,3S)-3-(pyrrolidin-1-yl)cyclopentane]sulfonyl]methyl)-1,3-oxazol-2-yl]-N-(pyridin-3-ylmethyl)benzamide], for which the “Ratio (IC50 RCC4 Proficient VHL)/ IC50 RCC4 Deficient VHL)” value in series [1] is listed as “b (from 10 to ≦100)”. The compound further showed an IC50 in the series on RCC4 (Homo sapiens, 96 h) of less than 1 nM.
For `Cc1oc(-c2ccc(C(=O)NCc3cccnc3)cc2)nc1CS(=O)(=O)[C@H]1CC[C@H](N2CCCCC2)C1` [Example 49, 4-[5-Methyl-4-([[(1S,3S)-3-(piperidin-1-yl)cyclopentane]sulfonyl]methyl)-1,3-oxazol-2-yl]-N-(pyridin-3-ylmethyl)benzamide], in series [1], the “Ratio (IC50 RCC4 Proficient VHL)/ IC50 RCC4 Deficient VHL)” value is given as “b (from 10 to ≦100)”. The compound also came in with an IC50 in the series on RCC4 of less than 1 nM.
As for `Cc1oc(-c2ccc(C(=O)NCc3cccnc3)cc2)nc1CS(=O)(=O)[C@@H]1CC[C@H](N)C1` [Example 50, 4-[4-([[(1R,3S)-3-Aminocyclopentane]sulfonyl]methyl)-5-methyl-1,3-oxazol-2-yl]-N-(pyridin-3-ylmethyl)benzamide], in series [1], the “Ratio (IC50 RCC4 Proficient VHL)/ IC50 RCC4 Deficient VHL)” value is given as “b (from 10 to ≦100)”. In the series with RCC4 (Homo sapiens, 96 h), this compound had an IC50 greater than 20 nM.
As for `Cc1oc(-c2ccc(C(=O)NCc3cccnc3)cc2)nc1CS(=O)(=O)[C@@H]1CC[C@H](N2CCCC2)C1` [Example 51, 4-[5-Methyl-4-([[(1R,3S)-3-(pyrrolidin-1-yl)cyclopentane]sulfonyl]methyl)-1,3-oxazol-2-yl]-N-(pyridin-3-ylmethyl)benzamide], the “Ratio (IC50 RCC4 Proficient VHL)/ IC50 RCC4 Deficient VHL)” value in series [1] is recorded as “b (from 10 to ≦100)”. The IC50 in the series with RCC4 (Homo sapiens, 96 h) was less than 1 nM.
With `Cc1oc(-c2ccc(C(=O)NCc3cccnc3)cc2)nc1CS(=O)(=O)[C@@H]1CC[C@H](N2CCCCC2)C1` [Example 52, 4-[5-Methyl-4-([[(1R,3S)-3-(piperidin-1-yl)cyclopentane]sulfonyl]methyl)-1,3-oxazol-2-yl]-N-(pyridin-3-ylmethyl)benzamide], the “Ratio (IC50 RCC4 Proficient VHL)/ IC50 RCC4 Deficient VHL)” value in series [1] is reported as “a (a ratio of RCC4/RCC-VHL+ranging from 1 to ≦10)”. In the series with RCC4 (Homo sapiens, 96 h), this compound had an IC50 of less than 1 nM.
For `Cc1oc(-c2ccc(C(=O)NCc3cccnc3)cc2)nc1CS(=O)(=O)C1CCN(CC(C)C)CC1` [Example 53, 4-(5-methyl-4-[[1-(2-methylpropyl)piperidine-4-sulfonyl]methyl]-1,3-oxazol-2-yl)-N-(pyridin-3-ylmethyl)benzamide] the same measures were “a (a ratio of RCC4/RCC-VHL+ranging from 1 to ≦10)” and less than 1 nM.
As for `Cc1oc(-c2ccc(C(=O)NCc3cccnc3)cc2)nc1CS(=O)(=O)C1CCN(C2CCCC2)CC1` [Example 54, 4-[4-[(1-cyclopentylpiperidine-4-sulfonyl)methyl]-5-methyl-1,3-oxazol-2-yl]-N-(pyridin-3-ylmethyl)benzamide], the “Ratio (IC50 RCC4 Proficient VHL)/ IC50 RCC4 Deficient VHL)” value in series [1] is on record as “b (from 10 to ≦100)”. Also, the IC50 in the series on RCC4 (Homo sapiens, 96 h) was less than 1 nM.
`Cc1oc(-c2ccc(C(=O)NCc3cccnc3)cc2)nc1CS(=O)(=O)C1CCN(C2CCCCC2)CC1` [Example 55, 4-[4-[(1-cyclohexylpiperidine-4-sulfonyl)methyl]-5-methyl-1,3-oxazol-2-yl]-N-(pyridin-3-ylmethyl)benzamide]: the “Ratio (IC50 RCC4 Proficient VHL)/ IC50 RCC4 Deficient VHL)” value in series [1] was “a (a ratio of RCC4/RCC-VHL+ranging from 1 to ≦10)”. The compound also gave an IC50 in the series on RCC4 (Homo sapiens, 96 h) of less than 1 nM.
As for `O=C(Nc1cccnc1)c1ccc(CNS(=O)(=O)c2cccnc2)cc1` [II-1, N-(3-Pyridinyl)-4-{[(3-pyridylsulfonyl)amino]methyl}benzamide], in series [1], the Ratio entry is on record as “a (a ratio of RCC4/RCC-VHL+ranging from 1 to ≦10)”.
`O=C(Nc1cccnc1)c1ccc(CNS(=O)(=O)c2ccc(Cl)nc2)cc1` [II-2, 4-({[(6-Chloro-3-pyridinyl)sulfonyl]amino}methyl)-N-(3-pyridinyl)benzamide] yielded a melting point of 226 to 228 °C. Also, the IC50 in the series on RCC4 (Homo sapiens, 96 h) was greater than 20 nM.
As to `O=C(Nc1cccnc1)c1ccc(CNS(=O)(=O)c2ccc(Oc3ccccc3)nc2)cc1` [II-3, 4-({[(6-Phenoxy-3-pyridinyl)sulfonyl]amino}methyl)-N-(3-pyridinyl)benzamide], the Ratio entry in series [1] is “a (a ratio of RCC4/RCC-VHL+ranging from 1 to ≦10)”.
The same measure, in the same setting: for `O=C(Nc1cccnc1)c1ccc(CNS(=O)(=O)c2cccs2)cc1` [II-4, N-(3-Pyridinyl)-4-{[(2-thienylsulfonyl)amino]methyl}benzamide] the value was “a (a ratio of RCC4/RCC-VHL+ranging from 1 to ≦10)”; for `O=C(Nc1cccnc1)c1ccc(CNS(=O)(=O)c2ccsc2)cc1` [II-5, N-(3-Pyridinyl)-4-{[(3-thienylsulfonyl)amino]methyl}benzamide], “a (a ratio of RCC4/RCC-VHL+ranging from 1 to ≦10)”.
`Cc1ncc(S(=O)(=O)NCc2ccc(C(=O)Nc3cccnc3)cc2)n1C` [II-6, 4-({[(1,2-Dimethyl-1H-imidazol-5-yl)sulfonyl]amino}methyl)-N-(3-pyridinyl)benzamide]: the melting point lay within 238 to 240 °C. In addition, in the series on RCC4 (Homo sapiens, 96 h), the IC50 is greater than 20 nM.
Consider `O=C(Nc1cccnc1)c1ccc(CNS(=O)(=O)c2nnc[nH]2)cc1` [II-7, N-(3-pyridinyl)-4-{[(4H-1,2,4-triazol-3-ylsulfonyl)amino]methyl}benzamide], for which the melting point lay in the range of 266 to 269 °C. Moreover, the concentration for half-maximal inhibition (IC50) in the series on RCC4 (Homo sapiens, 96 h) was greater than 20 nM.

One may read the IC50 as the midpoint of a concentration-inhibition curve. A low value points to inhibition by little substance. For orientation: melting point means the temperature, or range, at which the solid turns liquid.
